Experimental data taken from US10874745B2, “Antimicrobial peptides and methods of treating gram-negative pathogens: polar and non-polar face analogs” (priority 2017, dated 2020).
Converted amounts (≈) assume the structure as drawn. “And” between values parts separate entries of the source, which are not always exact repeats. Equal entries are not always repeated. Where two headings read alike, the source gives them in different places. Non-standard residues stand in square brackets, D forms with d. Residues, ends and D or L forms follow the SMILES beside them. dDab = NCC[C@@H](N)C(=O)O

How the values were obtained:
[1] = Hemolytic activity; type: cell-based, human; details: 1% human erythrocytes (red blood cells), pH 7.4
Protocol: Hemoglobin release was determined spectrophotometrically at 570 nm. […] […] […] With the peptides used in this study the inventors used the HC30/MIC ratio value to calculate the therapeutic index.

[2] = tested on: A. baumannii strains resistant to Polymyxin B and Colistin; type: cell-based; details: for MICGM: geometric mean, 7 A. baumannii strains resistant to polymyxin B and colistin
From the text: Gram-Negative Bacterial Strains used in this Study: All the A. baumannii strains used in this study were 1) obtained from the collection of Dr. Anthony A. Campagnari at the University of Buffalo and originally isolated from different patients and organs/tissues (strain 649, blood; strain 689, groin; strain 759, gluteus; strain 884, axilla; strain 985, pleural fluid); 2) were purchased from the American Type Culture Collection (ATCC, Manassas, Va., USA) (strain ATCC 17978, fatal meningitis; and strain ATCC 19606, urine); 3) obtained from MERCK (M89941, M89949, M89951, M89952, M89953, M89955 and M89963). These seven A. baumannii strains were resistant to polymyxin B and polymyxin E (Colistin).
Measurement of Antimicrobial Activity (MIC): The minimal inhibitory concentration (MIC) is defined as the lowest peptide concentration that inhibited bacterial growth. MICs were measured by a standard microtiter dilution method in Mueller Hinton (MH) medium. Briefly, cells were grown overnight at 37° C. in MH broth and were diluted in the same medium. […] The plates were incubated at 37° C. for 24 h, and the MICs were determined.

[3] = tested on: MRSA; assay: Resistance profile of MRSA strains; type: cell-based, Staphylococcus aureus; design: key: R denotes resistant; S denotes sensitive
[4] = tested on: MSSA; assay: Resistance profile of MSSA strains; type: cell-based, Staphylococcus aureus; design: key: R denotes resistant; S denotes sensitive
[5] = 50% hemolysis of human red blood cells after 18 hours at 37° C., read-out: HC50

Compound	HC50 at 18 h [1, 5]	Antibiotic Susceptibility ([3]; MRSA strain M21742 (Nose))	Antibiotic Susceptibility ([3]; MRSA strain M21756 (Nose))	Antibiotic Susceptibility ([3]; MRSA strain M22111 (Ear))	Antibiotic Susceptibility ([3]; MRSA strain M22130)	Antibiotic Susceptibility ([3]; MRSA strain M22224 (Leg))	Antibiotic Susceptibility ([3]; MRSA strain M22354)	Antibiotic Susceptibility ([3]; MRSA strain M22360 (Labia))	Antibiotic Susceptibility ([3]; MRSA strain M22424 (Arm))	Antibiotic Susceptibility ([4]; MSSA strain BL7429 (Blood))	Antibiotic Susceptibility ([4]; MSSA strain M21913 (Finger))	Antibiotic Susceptibility ([4]; MSSA strain M22075 (Axilla))	Antibiotic Susceptibility ([4]; MSSA strain M22097 (Neck))	Antibiotic Susceptibility ([4]; MSSA strain M22274 (Spine))	Antibiotic Susceptibility ([4]; MSSA strain M22300 (Finger))	Antibiotic Susceptibility ([4]; MSSA strain M22312 (Finger))	Antibiotic Susceptibility ([4]; MSSA strain M22315)	other results
CC(=O)N[C@H](CCCCN)C(=O)N[C@H](CC(C)C)C(=O)N[C@H](CCCCN)C(=O)N[C@H](CO)C(=O)N[C@H](CC(C)C)C(=O)N[C@H](CC(C)C)C(=O)N[C@H](CCCCN)C(=O)N[C@@H](C(=O)N[C@H](CC(C)C)C(=O)N[C@H](CO)C(=O)N[C@H](CCCCN)C(=O)N[C@H](C)C(=O)N[C@H](CCCCN)C(=O)N[C@H](C)C(=O)N[C@H](C)C(=O)N[C@H](CCCCN)C(=O)N[C@H](CC(C)C)C(=O)N[C@H](CCCCN)C(=O)N[C@@H](C(=O)N[C@H](CC(C)C)C(=O)N[C@H](CC(C)C)C(=O)N[C@H](CCCCN)C(=O)N[C@H](C)C(=O)N[C@H](CC(C)C)C(=O)N[C@H](CO)C(=O)N[C@H](CO)C(N)=O)[C@H](C)O)[C@H](C)O [Peptide D101, Ac-KL(Lys)SLL(Lys)TLS(Lys)AKAAKL(Lys)TLL(Lys)ALSS-amide]	279 µg/mL and > 104 µM	–	–	–	–	–	–	–	–	–	–	–	–	–	–	–	–	–
CC(=O)N[C@H](CCCCN)C(=O)N[C@H](CC(C)C)C(=O)N[C@H](CCN)C(=O)N[C@H](CO)C(=O)N[C@H](CC(C)C)C(=O)N[C@H](CC(C)C)C(=O)N[C@H](CCN)C(=O)N[C@@H](C(=O)N[C@H](CC(C)C)C(=O)N[C@H](CO)C(=O)N[C@H](C)C(=O)N[C@H](C)C(=O)N[C@H](CCCCN)C(=O)N[C@H](CCN)C(=O)N[C@H](CCN)C(=O)N[C@H](CCCCN)C(=O)N[C@H](CC(C)C)C(=O)N[C@H](C)C(=O)N[C@@H](C(=O)N[C@H](CC(C)C)C(=O)N[C@H](CC(C)C)C(=O)N[C@H](CCN)C(=O)N[C@H](C)C(=O)N[C@H](CC(C)C)C(=O)N[C@H](CO)C(=O)N[C@H](CCN)C(N)=O)[C@H](C)O)[C@H](C)O [Peptide D89, Ac-KL(Dbu)SLL(Dbu)TLSAAK(Dbu)(Dbu)KLATLL(Dbu)ALS(Dbu)-amide] (Ac-[dK][dL][dDab][dS][dL][dL][dDab][dT][dL][dS][dA][dA][dK][dDab][dDab][dK][dL][dA][dT][dL][dL][dDab][dA][dL][dS][dDab]-NH2)	–	–	–	–	–	–	–	–	–	–	–	–	–	–	–	–	–	MIC ([2]; strain MB9941 (Table 9C)): 0.7 µM (≈ 1.89 µg/mL); MIC ([2]; strain MB9949 (Table 9C)): 0.7 µM (≈ 1.89 µg/mL); MIC ([2]; strain MB9951 (Table 9C)): 0.7 µM (≈ 1.89 µg/mL); MIC ([2]; strain MB9952 (Table 9C)): 0.7 µM (≈ 1.89 µg/mL); MIC ([2]; strain MB9953 (Table 9C)): 0.7 µM (≈ 1.89 µg/mL); MIC ([2]; strain MB9955 (Table 9C)): 0.7 µM (≈ 1.89 µg/mL); MIC ([2]; strain MB9963 (Table 9C)): 0.7 µM (≈ 1.89 µg/mL); HC50 at 18 h ([1]; human): > 3000 µg/mL and > 1.11 mM
Polymyxin B [reference compound]	–	–	–	–	–	–	–	–	–	–	–	–	–	–	–	–	–	MICGM [2]: >25 µM; MIC ([2]; strain M89941): >25 µM; MIC ([2]; strain M89949): >25 µM; MIC ([2]; strain M89951): >25 µM; MIC ([2]; strain M89952): >25 µM; MIC ([2]; strain M89953): >25 µM; MIC ([2]; strain M89955): >25 µM; MIC ([2]; strain M89963): >25 µM
CC(=O)N[C@H](CCCCN)C(=O)N[C@H](CC(C)C)C(=O)N[C@H](CCCCN)C(=O)N[C@H](CO)C(=O)N[C@H](CC(C)C)C(=O)N[C@H](CC(C)C)C(=O)N[C@H](CCCCN)C(=O)N[C@@H](C(=O)N[C@H](CC(C)C)C(=O)N[C@H](CO)C(=O)N[C@H](C)C(=O)N[C@H](C)C(=O)N[C@H](CCCCN)C(=O)N[C@H](CCCCN)C(=O)N[C@H](CCCCN)C(=O)N[C@H](CCCCN)C(=O)N[C@H](CC(C)C)C(=O)N[C@H](C)C(=O)N[C@@H](C(=O)N[C@H](CC(C)C)C(=O)N[C@H](CC(C)C)C(=O)N[C@H](CCCCN)C(=O)N[C@H](C)C(=O)N[C@H](CC(C)C)C(=O)N[C@H](CO)C(=O)N[C@H](CO)C(N)=O)[C@H](C)O)[C@H](C)O [Peptide D103, Ac-KL(Lys)SLL(Lys)TLSAAK(Lys)(Lys)KLATLL(Lys)ALSS-amide] (Ac-[dK][dL][dK][dS][dL][dL][dK][dT][dL][dS][dA][dA][dK][dK][dK][dK][dL][dA][dT][dL][dL][dK][dA][dL][dS][dS]-NH2)	381 µg/mL and 135 µM	–	–	–	–	–	–	–	–	–	–	–	–	–	–	–	–	–
CCC[C@@H]1C[C@@H](C(=O)N[C@@H]([C@H]2O[C@H](SC)[C@H](O)[C@@H](O)[C@H]2O)[C@H](C)Cl)N(C)C1 [Clindamycin]	–	S	S	R	S	S	S	S	S^c	S	S	S	S	S	S	S	S	Antibiotic Susceptibility ([4]; MSSA strain M22287 (Hip)): S
Cc1onc(-c2ccccc2)c1C(=O)N[C@@H]1C(=O)N2[C@@H]1SC(C)(C)[C@@H]2C(=O)O [Oxacillin]	–	R	R	R	R	R	R	R	R^c	S	S	S	S	S	S	S	S	Antibiotic Susceptibility ([4]; MSSA strain M22287 (Hip)): S
CC[C@H]1OC(=O)[C@H](C)[C@@H](O[C@H]2C[C@@](C)(OC)[C@@H](O)[C@H](C)O2)[C@H](C)[C@@H](O[C@@H]2O[C@H](C)C[C@H](N(C)C)[C@H]2O)[C@](C)(O)C[C@@H](C)C(=O)[C@H](C)[C@@H](O)[C@]1(C)O [Erythromycin]	–	R	S	R	R	R	R	R	R	S	S	S	S	S	S	S	S	–
CC(=O)N[C@H](CCCCN)C(=O)N[C@H](CC(C)C)C(=O)N[C@H](CCCNC(=N)N)C(=O)N[C@H](CO)C(=O)N[C@H](CC(C)C)C(=O)N[C@H](CC(C)C)C(=O)N[C@H](CCCNC(=N)N)C(=O)N[C@@H](C(=O)N[C@H](CC(C)C)C(=O)N[C@H](CO)C(=O)N[C@H](CCCNC(=N)N)C(=O)N[C@H](C)C(=O)N[C@H](CCCCN)C(=O)N[C@H](C)C(=O)N[C@H](C)C(=O)N[C@H](CCCCN)C(=O)N[C@H](CC(C)C)C(=O)N[C@H](CCCNC(=N)N)C(=O)N[C@@H](C(=O)N[C@H](CC(C)C)C(=O)N[C@H](CC(C)C)C(=O)N[C@H](CCCNC(=N)N)C(=O)N[C@H](C)C(=O)N[C@H](CC(C)C)C(=O)N[C@H](CO)C(=O)N[C@H](CCCNC(=N)N)C(N)=O)[C@H](C)O)[C@H](C)O [Peptide D87, Ac-KL(Arg)SLL(Arg)TLS(Arg)AKAAKL(Arg)TLL(Arg)ALs(Arg)-amide] (Ac-[dK][dL][dR][dS][dL][dL][dR][dT][dL][dS][dR][dA][dK][dA][dA][dK][dL][dR][dT][dL][dL][dR][dA][dL][dS][dR]-NH2)	12 µg/mL	–	–	–	–	–	–	–	–	–	–	–	–	–	–	–	–	–
Colistin [reference compound]	–	–	–	–	–	–	–	–	–	–	–	–	–	–	–	–	–	MICGM [2]: >28 µM; MIC ([2]; strain M89941): >28 µM; MIC ([2]; strain M89949): >28 µM; MIC ([2]; strain M89951): >28 µM; MIC ([2]; strain M89952): >28 µM; MIC ([2]; strain M89953): >28 µM; MIC ([2]; strain M89955): >28 µM; MIC ([2]; strain M89963): >28 µM
